Molecules are shown by their SMILES.

What all share (type): in vivo
Experiment [1] concerns cortisol (CORT). Put plainly: Neurotransmitter measurement by ELISA: CORT. The settings on record: trunk blood. As to the method: (§1) The rats were housed in individual cages with light and temperature control (temperature: 21±2° C.; lights on at 8:00 AM and off at 8:00 PM). Food and water were available ad libitum. All experimental procedures were carried out in strict accordance with the National Institutes of Health guidelines for care and use of experimental animals. After an initial habituation period of 1 week, all animals were given access to bottle containing a sucrose solution in tap water for 1 hour and were tested for the baseline data of the sucrose preference test. According to the baseline data, the animals were divided into 9 groups (n=10-12 animals/each group), that is the control group, the stressed group, the stressed+fluoxetine group, the stressed+Example 1 group, the stressed+ginseng extract group, the stressed+Radix paeoniae Alba extract group, the stressed+Tree Peony Bark extract group, the stressed+Sharpleaf Galangal Fruit extract group, and the stressed+Radix Polygonum multiflorum Preparata extract group. The animals were subjected to 2 to 5 different mild stressors per day for 5 weeks. The mild stressors included water and food deprivation, cage tilt, continuously lighting, cage soiling, stroboscopic lighting, restricted access to food, and tail pinching. Control animals were not subjected to the stress protocol, and the stressed animals were subjected to the mild stressors and given the same amount of water as control group. The animals of the stressed+fluoxetine group were subjected to the mild stressors and treated with fluoxetine capsules. The animals of the stressed+Example 1 group were subjected to the mild stressors and treated with the composition of Example 1. The animals of the stressed+single extract group were subjected to the mild stressors and treated with the single extract.
(§2) The rats were sacrificed and the trunk blood was collected into the collection tubes coated with standard heparin. […] The levels of corticotropin-releasing hormone (CRH), adrenocorticotropic hormone (ACTH) and cortisol (CORT) were detected by ELISA. […]
(In an ELISA, binding on a coated surface is turned into a signal by an enzyme label.)

Experiment [2] has as its system chronically stressed rats. Put plainly: Sucrose preference test in chronically stressed rats. As to the method: as §1
The rats could select between two bottles of liquid freely, one with 0.8% sucrose solution and one with tap water, after 23 h food and water deprivation. To avoid the rats prefer to drink one side of the water, the position of the two bottles were exchanged every half an hour. Tap water consumption and sucrose consumption were measured by weighting the bottles, and the sucrose preference were calculated based on the following formula: […]
The rats were housed in individual cages with light and temperature control (temperature: 21±2° C.; lights on at 8:00 AM and off at 8:00 PM). Food and water were available ad libitum. All experimental procedures were carried out in strict accordance with the National Institutes of Health guidelines for care and use of experimental animals. After an initial habituation period of 1 week, all animals were given access to bottle containing a sucrose solution in tap water for 1 hour and were tested for the baseline data of the sucrose preference test. […]

Experiment [3] relates to CRH, ACTH and CORT. Put plainly: Neurotransmitter measurement, overall statement on CRH, ACTH and CORT. The settings on record: chronically stressed rats. As to the method:
The rats were housed in individual cages with light and temperature control (temperature: 21±2° C.; lights on at 8:00 AM and off at 8:00 PM). Food and water were available ad libitum. All experimental procedures were carried out in strict accordance with the National Institutes of Health guidelines for care and use of experimental animals. After an initial habituation period of 1 week, all animals were given access to bottle containing a sucrose solution in tap water for 1 hour and were tested for the baseline data of the sucrose preference test. According to the baseline data, the animals were divided into 9 groups (n=10-12 animals/each group), that is the control group, the stressed group, the stressed+fluoxetine group, the stressed+Example 1 group, the stressed+ginseng extract group, the stressed+Radix paeoniae Alba extract group, the stressed+Tree Peony Bark extract group, the stressed+Sharpleaf Galangal Fruit extract group, and the stressed+Radix Polygonum multiflorum Preparata extract group. The animals were subjected to 2 to 5 different mild stressors per day for 5 weeks. […]
as §2

Experiment [4] deals with corticotropin-releasing hormone (CRH). Put plainly: Neurotransmitter measurement by ELISA: CRH. Conditions: trunk blood. As to the method:
as §1, §2

The subject of experiment [5] is adrenocorticotropic hormone (ACTH). The experiment can be described thus: Neurotransmitter measurement by ELISA: ACTH. The settings on record: trunk blood. As to the method:
as §1, §2

Setting [6] is: Comparative study (Comparative Examples 1-7), chronically stressed rats.
[7] abbreviates: Experimental Example 1, chronically stressed rats.
The mark [8] stands for this setting: Experimental Example 2, chronically stressed rats.

For `CNCCC(Oc1ccc(C(F)(F)F)cc1)c1ccccc1` (centres unmarked) [fluoxetine], the CORT is 52.46 ± 6.05 ng/mL in experiment [1] (setting [6]), 52.09 ± 5.95 ng/mL in experiment [1] (setting [7]) and 52.09 ± 5.95 ng/mL in experiment [1] (setting [8]). Also, the “Sucrose Preference” value in experiment [2] (Comparative study (Comparative Example 1-7), mild stressors for 5 weeks, 0.8% sucrose vs tap water) amounted to 0.7502 ± 0.0471; in experiment [2] (Experimental Example 2, mild stressors for 5 weeks, 0.8% sucrose vs tap water), 0.7431 ± 0.0565. Also, the “Sucrose Preferenc” value in experiment [2] (Experimental Example 1, mild stressors for 5 weeks, 0.8% sucrose vs tap water) was determined as 0.7431 ± 0.0565. Moreover, the “Change of sucrose preference compared with the stressed group (in words)” value in experiment [2] (compared with the stressed group) is on record as “significantly increase the sucrose preference”. Further, in experiment [3], the “Effect on the abnormal levels of CRH, ACTH and CORT caused by chronic stress (in words)” value was “improve the abnormal levels of CRH, ACTH and CORT”. For the same molecule, the CRH is 5.11 ± 0.29 ng/mL in experiment [4] (setting [6]), 5.13 ± 0.25 ng/mL in experiment [4] (setting [7]) and 5.13 ± 0.25 ng/mL in experiment [4] (setting [8]). Besides, the ACTH in experiment [5] (setting [6]) was 32.73 ± 2.66 pg/mL; in experiment [5] (setting [7]), 33.83 ± 2.26 pg/mL; in experiment [5] (setting [8]), 33.83 ± 2.26 pg/mL.

The values are drawn from patent US10744173B2, “Traditional Chinese medicine compositions for alleviating stress” (Infinitus (China) Company Ltd., priority 2017, dated 2020).
